These results are taken from patent US8044065B2, “Benzothienopyridines for use as inhibitors of Eg5 kinesin” (Altana Pharma AG, priority 2004, dated 2011).

Series [1] has as its system RKO colon adenocarcinoma cells (RKOp27), arrested by p27Kip1 induced by Ponasterone A. Kind of series: Alamar Blue cell viability assay, RKO p27 induced by Ponasterone A (arrested cells). Format: cell-based. The settings on record: Homo sapiens, RKO p27 induced (10 μM Ponasterone A), 72 hours, read-out: Anti-proliferative/cytotoxic activity, -log IC50, RKO p27 induced (converted). As to the method:
To determine the cell cycle specific mode of action, subclones of RKO colon adenocarcinoma cells (RKOp27 as described by Schmidt et al. in Oncogene 19, 2423-2429; 2000) are seeded into 96 well flat bottom plates at a density of 16000 cells per well in a volume of 50 μl per well in DMEM growth medium with 10% FCS containing 10 μM Ponasterone A. 24 hours after seeding the 50 μl each of the compound dilutions in DMEM medium are added into each well of the 96-well plate. Each compound dilution is tested as quadruplicates. Wells containing untreated control cells are filled with 50 μl DMEM medium containing 1% DMSO. The cells are then incubated with the substances for 72 hours at 37° C. in a humidified atmosphere containing 5% carbon dioxide. To determine the viability of the cells, 10 μl of an Alamar Blue solution (Biosource) are added and the fluorescence is measured at an extinction of 544 nm and an emission of 590 nm. For the calculation of the cell viability the emission value from untreated cells is set as 100% viability and the emission rates of treated cells are set in relation to the values of untreated cells. Viabilities are expressed as % values. Viability is compared of proliferating cells grown in the absence of the inducer Ponasterone A, versus viability of cells arrested by the expression of ectopic p27Kip1 induced by Ponasterone A.

For series [2], the system named is RKOp27 colon cancer cells. Kind of series: Induction of apoptosis, Cell death detection ELISA. The series is classed as cell-based. The settings on record: Homo sapiens, 24 hours, relative to 50 μM cisplatin = 100 cpu, read-out: Apoptosis Induction, -log EC50 (converted). On the procedure:
The induction of apoptosis can be measured by using a Cell death detection ELISA (Roche Biochemicals, Mannheim, Germany). RKOp27 colon cancer cells are seeded into 96 well flat bottom plates at a density of 10000 cells per well in a volume of 50 μl RPMI medium (containing 10% fetal calf serum) per well. 24 hours after seeding the 50 μl each of the compound dilutions in RPMI medium are added into each well of the 96 Well plate. Each compound dilution is tested at least as triplicates. Wells containing untreated control cells are filled with 50 μl RPMI medium containing 1% DMSO. The cells are then incubated with the substances for 24 hours at 37° C. in a humidified atmosphere containing 5% carbon dioxide. As a positive control for the induction of apoptosis, cells are treated with 50 μM Cisplatin (Gry Pharmaceuticals, Kirchzarten, Germany). Medium is then removed and the cells are lysed in 200 μl lysis buffer. After centrifugation as described by the manufacturer, 10 μl of cell lysate is processed as described in the protocol. The degree of apoptosis is calculated as follows: The absorbance at 405 nm obtained with lysates from cells treated with 50 μM cisplatin is set as 100 cpu (cisplatin units), while an absorbance at 405 nm of 0.0 was set as 0.0 cpu. The degree of apoptosis is expressed as cpu in relation to the value of 100 cpu reached with the lysates obtained from cells treated with 50 μM cisplatin. The corresponding EC50 values of the compounds for apoptosis inducing activity are determined from the concentration-effect curves.
In general terms: An ELISA detects its analyte on a solid surface through an enzyme-linked reagent.

Series [3] relates to RKO human colon adenocarcinoma cells (RKOp27), uninduced. Kind of series: Alamar Blue cell viability assay, RKO p27 uninduced (proliferating cells). Format: cell-based. The settings on record: 72 hours, read-out: Anti-proliferative/cytotoxic activity, -log IC50, RKO p27 uninduced (converted). On the procedure: The anti-proliferative/cytotoxic activity of the compounds described herein can be tested on subclones of RKO human colon adenocarcinoma cells (Schmidt et al., Oncogene 19, 2423-2429; 2000) using the Alamar Blue cell viability assay (described in O'Brien et al. Eur J Biochem 267, 5421-5426, 2000). The compounds are dissolved as 10 mM solutions in DMSO and subsequently diluted in semi-logarithmic steps. DMSO dilutions are further diluted 1:100 into Dulbecco's modified Eagle's medium (DMEM) containing 10% fetal calf serum to a final concentration twice as much as the final concentration in the test. RKO subclones are seeded into 96 well flat bottom plates at a density of 4000 cells per well in a volume of 50 μl per well. 24 hours after seeding the 50 μl each of the compound dilutions in DMEM medium are added into each well of the 96 well plate. Each compound dilution is tested as quadruplicates. Wells containing untreated control cells are filled with 50 μl DMEM medium containing 1% DMSO. […] To determine the viability of the cells, 10 μl of an Alamar Blue solution (Biosource) are added and the fluorescence is measured at an extinction of 544 nm and an emission of 590 nm. […] Viabilities are expressed as % values.
The corresponding IC50 values of the compounds for anti-proliferative/cytotoxic activity are determined from the concentration-effect curves.
To determine the cell cycle specific mode of action, subclones of RKO colon adenocarcinoma cells (RKOp27 as described by Schmidt et al. in Oncogene 19, 2423-2429; 2000) are seeded into 96 well flat bottom plates at a density of 16000 cells per well in a volume of 50 μl per well in DMEM growth medium with 10% FCS containing 10 μM Ponasterone A. 24 hours after seeding the 50 μl each of the compound dilutions in DMEM medium are added into each well of the 96-well plate. […] To determine the viability of the cells, 10 μl of an Alamar Blue solution (Biosource) are added and the fluorescence is measured at an extinction of 544 nm and an emission of 590 nm. […] Viabilities are expressed as % values. […]
Background: The colour change of resazurin is a common sign of viable cells or microbes.

Series [4] has as its system NCl-H460 non-small cell lung cancer cells. Kind of series: Mitotic spindle malformation by confocal laser scanning microscopy. Format: cell-based. The settings on record: 1 μM, 24 hours, anti-alpha tubulin and Hoechst 33342 staining. As to the method:
Experimental perturbation of Eg5 function causes a characteristic malformation of the mitotic spindle, which can be examined by confocal laser scanning microscopy. NCl-H460 non-small cell lung cancer cells are grown overnight on glass cover slips (Nunc™ Lab-Tek™ Chamber Slides) in 1800 μl DMEM medium containing 10% fetal calf serum. The test compounds are dissolved as 10 mM solutions in DMSO. Appropriate DMSO dilutions of the test compounds are further diluted 1:10 into DMEM medium containing 10% fetal calf serum to a final concentration ten times as much as the final concentration in the test. 24 hours after seeding, 200 μl of the compound dilutions in DMEM medium are added into each well of the cover slip. As a control, 200 μl DMEM medium containing 10% DMSO are added. 24 hours after incubation with the test compounds, the cells are washed with PBS, and fixed with 3.7% formaldehyde in H2O for 20 min. at 37° C. Subsequently, cells are washed with PBS and incubated with 0.1% Triton X-100 in a buffer containing 1.471 mM KH2PO4, 8.504 mM Na2HPO4, 137 mM NaCl, 1.325 mM CaCl2, 2.685 mM KCl, 0.542 mM MgCl2, pH 7.2 for 15 min. at room temperature. […]

A value given as a limit tells only on which side of the number the result lay.

By EC50 is commonly meant the concentration at which the effect is half-maximal. Usually melting point stands for the temperature of the solid-liquid transition.

`CN1C(=O)C2Cc3c(sc4ccccc34)C(c3cccc(O)c3)N2C1=O` [Example 3, (3aS,10R)-10-(3-Hydroxy-phenyl)-2-methyl-4,10-dihydro-3aH-9-thia-2,10-diaza-cyclopenta[b]fluorene-1,3-dione] yielded a melting point of 213.3 to 216.4 °C. Further, the IC50 in series [1] was at least 100 µM. In addition, the EC50 in series [2] was at most 2.51 µM. The IC50 in series [3] was at most 0.631 µM. Also, in series [4], the “Mitotic arrest / mitotic spindle phenotype” value was “significant enrichment of cells arrested in mitosis”.

Regarding `CN1C(=O)N2[C@H](c3cccc(O)c3)c3[nH]c4ccccc4c3C[C@@]2(C)C1=O` [Example 2, (3aS,10R)-10-(3-Hydroxy-phenyl)-2,3a-dimethyl-3a,4,9,10-tetrahydro-2,9,10a-triaza-cyclopenty[b]fluorene-1,3-dione], the IC50 in series [1] was at least 100 µM; in series [3] it was at most 0.631 µM. In series [2], the EC50 is at most 2.51 µM.

The molecule `CN1C(=O)N2C(c3cccc(O)c3)c3[nH]c4ccccc4c3CC2(C)C1=O` (racemic) [Example 1, (±)-(3aSR,10RS)-10-(3-Hydroxy-phenyl)-2,3a-dimethyl-3a,4,9,10-tetrahydro-2,9,10a-triaza-cyclopenty[b]fluorene-1,3-dione] came in with a melting point of 299 to 305 °C. Moreover, the IC50 in series [1] was at least 100 µM. Further, the EC50 in series [2] was at most 2.51 µM. The IC50 in series [3] was at most 0.631 µM. Moreover, the “Mitotic arrest / mitotic spindle phenotype” value in series [4] is “significant enrichment of cells arrested in mitosis”.

As to `CN1C(=O)N2[C@H](c3cccc(O)c3)c3sc4ccccc4c3C[C@@]2(C)C1=O` (racemic) [Example 5, (3aSR,10RS)-10-(3-Hydroxy-phenyl)-2,3a-dimethyl-4,10-dihydro-3aH-9-thia-2,10a-diaza-cyclopenta[b]fluorene-1,3-dione], the EC50 in series [2] was at most 2.51 µM.
